In ChEMBL document CHEMBL3885881, “DrugMatrix”:

Organism: Rattus norvegicus
Assay: DrugMatrix - Regimen: Daily Repeat
Format: toxicity, organism-based, Sprague-Dawley
Design: regimen Daily Repeat, gender Male, age 6-8 weeks
Conditions: in vivo, po, route oral GAVAGE, […]; for ALKALINE PHOSPHATASE / ASPARTATE AMINOTRANSFERASE / BLOOD UREA NITROGEN / CARBON DIOXIDE / CHLORIDE / CHOLESTEROL / CREATINE PHOSPHOKINASE / CREATININE / GLUCOSE / LACTATE DEHYDROGENASE / LIPASE / PHOSPHORUS / POTASSIUM / SODIUM / TOTAL BILIRUBIN / TOTAL PROTEIN / URIC ACID / ALANINE AMINOTRANSFERASE / ALBUMIN: tissue Plasma; for BASOPHIL / EOSINOPHIL / ERYTHROCYTE COUNT / HEMATOCRIT / HEMOGLOBIN / LEUKOCYTE COUNT / LYMPHOCYTE / MEAN CORPUSCULAR HEMOGLOBIN / MEAN CORPUSCULAR HEMOGLOBIN CONCENTRATION / MEAN CORPUSCULAR VOLUME / MONOCYTE / NEUTROPHIL / PLATELET COUNT / ABSOLUTE BASOPHIL / ABSOLUTE EOSINOPHIL / ABSOLUTE LYMPHOCYTE / ABSOLUTE MONOCYTE / ABSOLUTE SEGMENTED NEUTROPHIL / NUCLEATED RED BLOOD CELLS: tissue Blood
[1] = 23 mg/kg, 120 h, dose level Low, time 5 day
[2] = 23 mg/kg, dose level High, time 28 day
[3] = 64 mg/kg, 72 h, dose level M1, time 3 day
[4] = 64 mg/kg, 120 h, dose level M1, time 5 day

Structure (SMILES): CC1=C(CC(=O)O)c2cc(F)ccc2/C1=C\c1ccc([S+](C)[O-])cc1 (stereo unspecified)
- ALKALINE PHOSPHATASE [1]: 330 u/L
- ASPARTATE AMINOTRANSFERASE [1]: 79.33 u/L
- BLOOD UREA NITROGEN [1]: 14.33 mg/dL
- CARBON DIOXIDE [1]: 29.33 mmol/L
- CHLORIDE [1]: 100.67 MEQ/L
- CHOLESTEROL [1]: 85 mg/dL
- CREATINE PHOSPHOKINASE [1]: 210.67 u/L
- CREATININE [1]: 0.2 mg/dL
- GLUCOSE [1]: 156 mg/dL
- LACTATE DEHYDROGENASE [1]: 80 u/L
- LIPASE [1]: 11.67 u/L
- PHOSPHORUS [1]: 10.87 mg/dL
- POTASSIUM [1]: 5.36 MEQ/L
- SODIUM [1]: 146.07 MEQ/L
- TOTAL BILIRUBIN [1]: 0.17 mg/dL
- TOTAL PROTEIN [1]: 6.1 G/DL
- URIC ACID [1]: 0.77 mg/dL
- BASOPHIL [2]: 0.35%
- EOSINOPHIL [2]: 0.51%
- ERYTHROCYTE COUNT [2]: 8.35 x10E6/uL
- HEMATOCRIT [2]: 50.37%
- HEMOGLOBIN [2]: 16.23 G/DL
- LEUKOCYTE COUNT [2]: 13.2 x10E3/uL
- LYMPHOCYTE [2]: 85.99%
- MEAN CORPUSCULAR HEMOGLOBIN [2]: 19.47 pg
- MEAN CORPUSCULAR HEMOGLOBIN CONCENTRATION [2]: 32.25 G/DL
- MEAN CORPUSCULAR VOLUME [2]: 60.4 fL
- MONOCYTE [2]: 1.36%
- NEUTROPHIL [2]: 10.23%
- PLATELET COUNT [2]: 1228.2 x10E3/uL
- ALANINE AMINOTRANSFERASE [2]: 29 u/L
- ALBUMIN [2]: 3.94 G/DL
- ALKALINE PHOSPHATASE [2]: 227.1 u/L
- ASPARTATE AMINOTRANSFERASE [2]: 60.9 u/L
- BLOOD UREA NITROGEN [2]: 12.3 mg/dL
- CHLORIDE [2]: 106.6 MEQ/L
- CHOLESTEROL [2]: 55 mg/dL
- CREATINE PHOSPHOKINASE [2]: 162.4 u/L
- CREATININE [2]: 0.52 mg/dL
- GLUCOSE [2]: 134.2 mg/dL
- PHOSPHORUS [2]: 11.59 mg/dL
- POTASSIUM [2]: 6.38 MEQ/L
- SODIUM [2]: 153.3 MEQ/L
- TOTAL BILIRUBIN [2]: 0.22 mg/dL
- TOTAL PROTEIN [2]: 6.6 G/DL
- ABSOLUTE BASOPHIL [3]: 0 CELLS/uL
- ABSOLUTE EOSINOPHIL [3]: 0 CELLS/uL
- ABSOLUTE LYMPHOCYTE [3]: 23014.33 CELLS/uL
- ABSOLUTE MONOCYTE [3]: 921.67 CELLS/uL
- ABSOLUTE SEGMENTED NEUTROPHIL [3]: 4264 CELLS/uL
- BASOPHIL [3]: 0%
- EOSINOPHIL [3]: 0%
- ERYTHROCYTE COUNT [3]: 5.01 x10E6/uL
- HEMATOCRIT [3]: 31.37%
- HEMOGLOBIN [3]: 12.4 G/DL
- LEUKOCYTE COUNT [3]: 28.2 x10E3/uL
- LYMPHOCYTE [3]: 80.67%
- MEAN CORPUSCULAR HEMOGLOBIN [3]: 24.8 pg
- MEAN CORPUSCULAR HEMOGLOBIN CONCENTRATION [3]: 39.53 G/DL
- MEAN CORPUSCULAR VOLUME [3]: 62.6 fL
- MONOCYTE [3]: 3.33%
- NEUTROPHIL [3]: 16%
- NUCLEATED RED BLOOD CELLS [3]: 0 /100WBC
- PLATELET COUNT [3]: 1053 x10E3/uL
- ALANINE AMINOTRANSFERASE [3]: 55.67 u/L
- ALBUMIN [3]: 3.33 G/DL
- ALKALINE PHOSPHATASE [3]: 252 u/L
- ASPARTATE AMINOTRANSFERASE [3]: 68 u/L
- BLOOD UREA NITROGEN [3]: 9 mg/dL
- CARBON DIOXIDE [3]: 22.33 mmol/L
- CHLORIDE [3]: 105 MEQ/L
- CHOLESTEROL [3]: 84.33 mg/dL
- CREATINE PHOSPHOKINASE [3]: 173.33 u/L
- CREATININE [3]: 0.16 mg/dL
- GLUCOSE [3]: 162.67 mg/dL
- LACTATE DEHYDROGENASE [3]: 160.33 u/L
- LIPASE [3]: 10.33 u/L
- PHOSPHORUS [3]: 9.7 mg/dL
- POTASSIUM [3]: 6.43 MEQ/L
- SODIUM [3]: 144.3 MEQ/L
- TOTAL BILIRUBIN [3]: 0.17 mg/dL
- TOTAL PROTEIN [3]: 5.17 G/DL
- URIC ACID [3]: 1.37 mg/dL
- ABSOLUTE BASOPHIL [4]: 0 CELLS/uL
- ABSOLUTE EOSINOPHIL [4]: 0 CELLS/uL
- ABSOLUTE LYMPHOCYTE [4]: 11762.67 CELLS/uL
- ABSOLUTE MONOCYTE [4]: 305.67 CELLS/uL
- ABSOLUTE SEGMENTED NEUTROPHIL [4]: 2898.33 CELLS/uL
- BASOPHIL [4]: 0%
- EOSINOPHIL [4]: 0%
- ERYTHROCYTE COUNT [4]: 4.62 x10E6/uL
- HEMATOCRIT [4]: 30.03%
- HEMOGLOBIN [4]: 11.8 G/DL
- LEUKOCYTE COUNT [4]: 14.97 x10E3/uL
- LYMPHOCYTE [4]: 78.67%
- MEAN CORPUSCULAR HEMOGLOBIN [4]: 25.5 pg
- MEAN CORPUSCULAR HEMOGLOBIN CONCENTRATION [4]: 39.3 G/DL
- MEAN CORPUSCULAR VOLUME [4]: 64.87 fL
- MONOCYTE [4]: 2%
- NEUTROPHIL [4]: 19.33%
- NUCLEATED RED BLOOD CELLS [4]: 0 /100WBC
- PLATELET COUNT [4]: 1198 x10E3/uL
- ALANINE AMINOTRANSFERASE [4]: 48.67 u/L
- ALBUMIN [4]: 3.57 G/DL
- ALKALINE PHOSPHATASE [4]: 225.67 u/L
- ASPARTATE AMINOTRANSFERASE [4]: 64.67 u/L
- BLOOD UREA NITROGEN [4]: 11 mg/dL
- CARBON DIOXIDE [4]: 31.67 mmol/L
- CHLORIDE [4]: 101.33 MEQ/L
- CHOLESTEROL [4]: 88.33 mg/dL
- CREATINE PHOSPHOKINASE [4]: 237.33 u/L
- CREATININE [4]: 0.18 mg/dL
- GLUCOSE [4]: 174.67 mg/dL
- LACTATE DEHYDROGENASE [4]: 137.33 u/L
- LIPASE [4]: 10.67 u/L
- PHOSPHORUS [4]: 10.57 mg/dL
- POTASSIUM [4]: 5.08 MEQ/L
- SODIUM [4]: 146.77 MEQ/L
- TOTAL BILIRUBIN [4]: 0.13 mg/dL
- TOTAL PROTEIN [4]: 5.57 G/DL
- URIC ACID [4]: 0.5 mg/dL
